The text below walks through data of patent US4100274A, “Polypeptide” (Imperial Chemical Industries Limited, priority 1976, dated 1978).

This data set can be described thus: toxic effects at multiples of the minimum active dose. The data set is classed as in vivo, rats. Particulars: dosed at one hundred times their minimum effective dose.
In the case of `CC(C)C[C@H](NC(=O)[C@@H](Cc1ccccc1)NC(=O)[C@H](Cc1ccc(O)cc1)NC(=O)[C@H](CO)NC(=O)[C@H](Cc1c[nH]c2ccccc12)NC(=O)[C@H](Cc1c[nH]cn1)NC(=O)[C@@H]1CCC(=O)N1)C(=O)N[C@@H](CCCNC(=N)N)C(=O)N1CCC[C@H]1C(=O)NNC(N)=O` [Example 4], the toxic effects result is “no toxic effects”.

For `CC(C)C[C@H](NC(=O)[C@@H](COC(C)(C)C)NC(=O)[C@H](Cc1ccc(O)cc1)NC(=O)[C@H](CO)NC(=O)[C@H](Cc1c[nH]c2ccccc12)NC(=O)[C@H](Cc1cnc[nH]1)NC(=O)[C@@H]1CCC(=O)N1)C(=O)N[C@@H](CCCNC(=N)N)C(=O)N1CCC[C@H]1C(=O)NNC(N)=O` [Example 7], the toxic effects result is on record as “no toxic effects”.

Regarding `COc1ccc(C[C@@H](NC(=O)[C@H](Cc2ccc(O)cc2)NC(=O)[C@H](CO)NC(=O)[C@H](Cc2c[nH]c3ccccc23)NC(=O)[C@H](Cc2c[nH]cn2)NC(=O)[C@@H]2CCC(=O)N2)C(=O)N[C@@H](CC(C)C)C(=O)N[C@@H](CCCNC(=N)N)C(=O)N2CCC[C@H]2C(=O)NNC(N)=O)cc1` [Example 6], the toxic effects entry is “no toxic effects”.
